Data as given in PubChem BioAssay (NCI).
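A five-concentration, 48-hour dose response in 96-well plates underlies each endpoint, interpolated linearly between surrounding concentrations. GI50: concentration for 50% inhibition of growth. The concentration for full growth arrest is given as TGI.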

How the values were obtained:
Test in all cases: DTP human tumour cell line panel, 48 h
[1] = system: NCI-H23 lung
[2] = system: LOX IMVI melanoma
[3] = system: KM12 colon
[4] = system: SF-268 CNS
[5] = system: OVCAR-4 ovarian
[6] = system: SK-OV-3 ovarian
[7] = system: SNB-75 CNS
[8] = system: SNB-19 CNS
[9] = system: MDA-MB-231 breast
[10] = system: HS 578T breast

| SMILES | TGI [1] [µM] | TGI [2] [µM] | TGI [3] [µM] | TGI [4] [µM] | TGI [5] [µM] | TGI [6] [µM] | TGI [7] [µM] | TGI [8] [µM] | GI50 [9] [µM] | TGI [9] [µM] | GI50 [10] [µM] | TGI [10] [µM] | GI50 [1] [µM] | GI50 [8] [µM] | GI50 [2] [µM] | GI50 [3] [µM] | GI50 [4] [µM] | GI50 [5] [µM] | GI50 [6] [µM] | GI50 [7] [µM] |
| --- | --- | --- | --- | --- | --- | --- | --- | --- | --- | --- | --- | --- | --- | --- | --- | --- | --- | --- | --- | --- |
| CC(C)C(NCc1c2ccccc2nc2ccccc12)C(=O)O (stereo not drawn) | > 100 | > 100 | > 100 | > 100 | 42.8 | > 100 | > 100 | – | – | – | – | – | – | – | – | – | – | – | – | – |
| CCC1C(=O)OCc2c1cc1n(c2=O)Cc2ccccc2-1 (stereo not drawn) | > 100 | > 100 | > 100 | > 100 | > 100 | – | > 100 | > 100 | – | – | – | – | – | – | – | – | – | – | – | – |
| CC(C)S(=O)(=O)ON1C(=O)c2ccc([N+](=O)[O-])cc2C1=O | > 100 | – | > 100 | > 100 | > 100 | > 100 | > 100 | > 100 | – | – | – | – | – | – | – | – | – | – | – | – |
| O=C1CCC(=O)C(C(=O)CCC(=O)Nc2ccc(Cl)cc2)C1 (stereo not drawn) | > 100 | > 100 | > 100 | > 100 | > 100 | > 100 | – | > 100 | – | – | – | – | – | – | – | – | – | – | – | – |
| COc1cc2ccc(C(=O)O)cc2cc1OC | > 100 | > 100 | > 100 | > 100 | > 100 | > 100 | > 100 | > 100 | – | – | – | – | – | – | – | – | – | – | – | – |
| Cc1cccc2c1C(=O)OC2(c1cccc2ccccc12)c1cccc2ccccc12 | > 100 | > 100 | > 100 | > 100 | > 100 | > 100 | > 100 | > 100 | – | – | – | – | – | – | – | – | – | – | – | – |
| Cc1cccc(Cc2cnc(NC(=O)/C=C/c3ccco3)s2)c1 | > 100 | > 100 | > 100 | > 100 | > 100 | > 100 | – | > 100 | 0.0771 | > 73.1 | 0.0313 | > 100 | 0.108 | 0.0488 | 0.0683 | 0.039 | 0.181 | 1.59 | 0.0465 | – |
| CC(C)N(C(=O)C12C3C4C5C3C1(C(=O)N(C(C)C)C(C)C)C5C42)C(C)C (stereo not drawn) | > 100 | > 69.5 | > 100 | > 100 | > 100 | > 100 | > 100 | > 100 | – | – | – | – | – | – | – | – | – | – | – | – |
| Cc1ccc(/C=C2\CN(C(=O)CCN3CCC(=NO)CC3)C/C(=C\c3ccc(C)cc3)C2=O)cc1 | – | 0.397 | – | 4.7 | – | – | – | 4.43 | – | – | 3.2 | > 100 | – | 1.58 | 0.185 | – | 1.92 | – | – | – |
| Nc1ccc(C(=O)N/C(=C\c2ccc3c(c2)OCO3)c2nc3ccc4c(c3[nH]2)C(=O)c2ccccc2C4=O)cc1 | 56.5 | > 100 | > 100 | > 100 | > 100 | 79.7 | 57.8 | > 100 | – | – | – | – | – | – | – | – | – | – | – | – |
| CN(C)/C=C/C(=O)c1cccc(C(=O)/C=C/N(C)C)n1 | > 100 | > 100 | > 100 | > 100 | > 100 | > 100 | > 100 | > 100 | – | – | – | – | – | – | – | – | – | – | – | – |
| c1ccc2c(Nc3ccc4c(c3)OCO4)c3ccoc3nc2c1 | 27.3 | 41.7 | 35.2 | 51.6 | > 100 | 99.7 | – | 81.3 | – | – | > 100 | > 100 | 10.9 | 26.5 | 17.9 | 14.2 | 15.6 | 29.4 | 22.7 | – |
| O=C(/C=C/c1ccc(OCCCOc2ccc(/C=C/C(=O)c3ccc(Cl)cc3)cc2)cc1)c1ccc(Cl)cc1 | > 100 | > 100 | > 100 | > 100 | > 100 | > 100 | > 100 | > 100 | – | – | – | – | – | – | – | – | – | – | – | – |
| COc1cccc(C2N3CCCCC3[C@@H]3c4[nH]c5ccccc5c4CCN23)c1OC (stereo partly drawn) | 30.6 | – | – | 23.7 | 31.5 | 31.4 | – | 24.3 | – | – | – | – | – | – | – | – | – | – | – | – |
| CCC(C)Cn1c(C)nc2c1C(=O)c1ccccc1C2=O (stereo not drawn) | 48.4 | 66.7 | > 100 | > 100 | > 100 | > 100 | > 100 | > 100 | – | – | – | – | – | – | – | – | – | – | – | – |
| Cc1nc(=O)n2c(c1C(=O)Nc1ccc(Cl)cc1)NCCC2 | > 100 | > 100 | > 100 | > 100 | > 100 | > 100 | – | > 100 | – | – | – | – | – | – | – | – | – | – | – | – |
| O=C1/C(=C/c2ccc(Cl)cc2)COc2ccc(Br)cc21 | > 100 | > 100 | > 100 | > 100 | – | > 100 | > 100 | – | – | – | – | – | – | – | – | – | – | – | – | – |
| C=CCN1C(=O)C/C(=C2/CCC(=O)N2CC=C)C1=O | > 100 | > 100 | > 100 | > 100 | > 100 | > 100 | > 100 | > 100 | – | – | – | – | – | – | – | – | – | – | – | – |

| SMILES | TGI [1] [µM] | TGI [2] [µM] | TGI [3] [µM] | TGI [4] [µM] | TGI [5] [µM] | TGI [6] [µM] | TGI [7] [µM] | TGI [8] [µM] | GI50 [9] [µM] | TGI [9] [µM] | GI50 [10] [µM] | TGI [10] [µM] | GI50 [1] [µM] | GI50 [8] [µM] | GI50 [2] [µM] | GI50 [3] [µM] | GI50 [4] [µM] | GI50 [5] [µM] | GI50 [6] [µM] | GI50 [7] [µM] |
| --- | --- | --- | --- | --- | --- | --- | --- | --- | --- | --- | --- | --- | --- | --- | --- | --- | --- | --- | --- | --- |
| C/C(=N/OCCC(=O)O)C1CC1 | > 100 | > 100 | > 100 | > 100 | > 100 | > 100 | > 100 | > 100 | – | – | – | – | – | – | – | – | – | – | – | – |
| c1cc[c]([Sn]([O]c2cccc3cccnc23)([c]2ccccc2)[c]2ccccc2)cc1 | 0.0397 | 0.0261 | 0.0267 | 0.0275 | 0.0343 | 0.038 | 0.198 | 0.127 | – | – | – | – | 0.0158 | 0.04 | 0.0132 | 0.0135 | 0.0128 | 0.0146 | 0.0192 | 0.0509 |
| Cc1ccc(S(=O)(=O)N/N=C/CN2C(=O)c3ccccc3C2=O)cc1 | > 100 | > 100 | – | – | > 100 | – | > 100 | > 100 | – | – | – | – | – | – | – | – | – | – | – | – |
| COc1ccccc1NC(=O)NS(=O)(=O)c1ccccc1 | > 100 | > 100 | > 100 | > 100 | > 100 | – | > 100 | > 100 | – | – | – | – | – | – | – | – | – | – | – | – |
| NC(=O)COc1ccc(Br)cc1Br | > 100 | – | > 100 | > 100 | – | > 100 | > 100 | > 100 | – | – | – | – | – | – | – | – | – | – | – | – |
| CCCN(CCC)c1c([N+](=O)[O-])cc(C(N)=O)cc1[N+](=O)[O-] | > 100 | – | > 100 | > 100 | > 100 | > 100 | > 100 | – | – | – | – | – | – | – | – | – | – | – | – | – |
| O=C1/C(=C/c2ccccc2)CN(C(=O)Oc2ccccc2)C/C1=C\c1ccccc1 | > 100 | 29.9 | > 100 | > 100 | > 100 | – | 17.5 | 40.9 | – | – | – | – | – | – | – | – | – | – | – | – |
| O=C1NC(=Nc2ccccc2Cl)SC1C(=O)Nc1ccc([N+](=O)[O-])cc1[N+](=O)[O-] (stereo not drawn) | > 100 | – | > 100 | > 100 | > 100 | > 100 | > 100 | > 100 | – | – | – | – | – | – | – | – | – | – | – | – |
| CCC[CH2][Sn]1([CH2]CCC)[O]N=Cc2ccccc2[O]1 | 1.68 | 1.35 | 2.78 | – | 3.51 | 6.15 | 1.54 | 2.33 | – | – | – | – | 0.413 | 1.09 | 0.377 | 1.47 | – | 2.03 | 2.96 | 0.359 |
| CC1(C)CC(=O)C=C(NC(=O)c2ccccc2)C1 | > 100 | > 100 | > 100 | > 100 | > 100 | > 100 | > 100 | > 100 | – | – | – | – | – | – | – | – | – | – | – | – |
| CC(C)=CCCC1(C)C=Cc2c(ccc3c2[nH]c2cc(O)c(C)cc23)O1 (stereo not drawn) | – | 8.19 | 8.77 | 10.2 | > 25 | > 2.5 | – | > 25 | – | – | – | – | – | > 25 | 4.53 | 4.74 | 5.06 | – | – | – |
| C/C(CC(=O)Nc1cc(Cl)c(Cl)cc1Cl)=N\NS(=O)(=O)c1ccc(C)cc1 | 54.6 | > 100 | > 100 | > 100 | – | > 100 | > 100 | – | – | – | – | – | – | – | – | – | – | – | – | – |
| CC1CC(=O)CC[C@@H]1OCc1ccccc1 (stereo partly drawn) | > 100 | > 100 | > 100 | > 100 | > 100 | > 100 | > 100 | > 100 | – | – | – | – | – | – | – | – | – | – | – | – |
| COC(=O)C([O][Ge]([CH3])([CH3])[CH3])c1ccccc1 (stereo not drawn) | > 100 | > 100 | > 100 | > 100 | > 100 | > 100 | > 100 | > 100 | – | – | – | – | > 100 | > 100 | > 100 | > 100 | > 100 | > 100 | > 100 | > 100 |
| CCOc1c(Cc2ccccc2)c(=O)n2c3ccccc3n3c(=O)n(C)c(=O)c1c23 | > 100 | > 100 | > 100 | > 100 | > 100 | > 100 | 81.2 | > 100 | – | – | – | – | – | – | – | – | – | – | – | – |
| CC1CCCc2c(CC3CC(=O)NC(=O)C3)nc(N)nc21 (stereo not drawn) | > 100 | > 100 | > 100 | > 100 | > 100 | > 100 | > 100 | – | – | > 100 | – | – | – | – | – | – | – | – | – | – |
| COC(=O)C1=C(c2cc(OC)c(OC)c(OC)c2)OC(c2cc(OC)c(OC)c(OC)c2)C1 (stereo not drawn) | 48.9 | 36.9 | 32.4 | > 100 | 70.6 | 71 | 78.1 | > 100 | – | – | – | – | – | – | – | – | – | – | – | – |
| N#CC(N)(C(=O)C(=O)NCCCNC(=O)C(=O)C(N)(C#N)c1ccc(Cl)cc1)c1ccc(Cl)cc1 (stereo not drawn) | > 100 | > 100 | > 100 | > 100 | > 100 | > 100 | > 100 | > 100 | – | – | – | – | – | – | – | – | – | – | – | – |
